In patent US10457707B2, “Substituted urea depsipeptide analogs as activators of the CLPP endopeptidase” (priority 2015, dated 2019):
≈ marks a conversion by molar mass, not a printed value. Like-named read-outs stand apart in the source and are kept apart here. *1 amine or outer side, *2 acyl side, *3 side chain or, on linkers, in order; H or OH if unused. Where a SMILES comes first, the peptide text is derived from it. Bridges are numbered along the chain shown (N, C = ends). [ ]: non-standard residue; d: D form. The star is where a group is joined. ξ: configuration not given here. Phe(3,5-F2) = N[C@@H](Cc1cc(F)cc(F)c1)C(=O)O; NH(4-OCF3-phenyl) = FC(F)(F)Oc1ccc(N*)cc1; Pro(4R-Me) = C[C@H]1CN[C@H](C(=O)O)C1; ξPro(4R-OH) = O=C(O)C1C[C@@H](O)CN1; ξPro(4S-Me) = C[C@@H]1CNC(C(=O)O)C1; ξPro(4R-Me) = C[C@H]1CNC(C(=O)O)C1; NH(4-Et-phenyl) = CCc1ccc(N*)cc1; aThr = C[C@H](O)[C@H](N)C(=O)O; X12 = c1nc2ccc(N*)cc2[nH]1; Pip = O=C(O)[C@@H]1CCCCN1; NMeA = CN[C@@H](C)C(=O)O; ξPip = O=C(O)C1CCCCN1; CO = O=C([*:1])[*:2]; ξP = O=C(O)C1CCCN1

How the values were obtained:
Assay type in all cases: cell-based
[1] = test system: Streptococcus pyogenes, ATCC 700294; test: Minimal inhibitory concentration assay (microbroth dilution); details: Streptococcus pyogenes, ATCC700294; read-out: Minimal Inhibitory Concentrations S. pyogenes ATCC 700294
Experimental: (§1) It is understood, that in various aspects, the MIC is determined by a microbroth dilution method. In a further aspect, the MIC is determined by a microbroth dilution method using Staphylococcus aureus, ATCC 29213. In a still further aspect, the MIC is determined by a microbroth dilution method using Staphylococcus aureus, NRS70. In a yet further aspect, the MIC is determined by a microbroth dilution method using Streptococcus pyogenes, ATCC 700294. In an even further aspect, the MIC is determined by a microbroth dilution method using Streptococcus pneumoniae, DAW27. In a still further aspect, the MIC is determined by a microbroth dilution method using Bacillus subtilis, ATCC 23857. In a yet further aspect, the MIC is determined by a microbroth dilution method using Enterococcus faecalis, ATCC 33186. In an even further aspect, the MIC is determined using Staphylococcus aureus, USA 300. In a still further aspect, the MIC is determined using Streptococcus pneumoniae, R6. In a further aspect, the MIC is determined using Staphylococcus aureus, USA 300 and compared to the MIC determined using Staphylococcus aureus, USA 300 wherein ClpP is inactivated, thus allowing confirmation that killing is via a ClpP-dependent pathway.
Minimal inhibitory concentrations (“MICs”) were determined using the microbroth dilution method according to Clinical Laboratory Standards Institute (CLSI; National, C.F. C. L. S., Methods for Dilution Antimicrobial Susceptibility Tests for Bacteria Grow aerobically-Seventh Edition: Approved Standard M7-A7, CLSI, Wayne, Pa., USA, 2008) and were read by visual inspection. Two fold serial dilutions of test compound in 100 μL of the appropriate broth media were first prepared in 96-well round bottom microtiter plates (Nalgene Nunc International, Rochester, N.Y., USA). […] The plates were then incubated aerobically at 37° C. All strains were incubated overnight. After incubations, in all cases the MIC was recorded as the lowest concentration of drug that prevented bacterial growth. The bacterial strains for which MIC was determined as described in Table 4.

[2] = test system: Staphylococcus aureus, USA 300 wherein ClpP is inactivated; test: Minimal inhibitory concentration assay
Experimental: as §1
(§2) Minimal inhibitory concentrations (“MICs”) were determined using the microbroth dilution method according to Clinical Laboratory Standards Institute (CLSI; National, C.F. C. L. S., Methods for Dilution Antimicrobial Susceptibility Tests for Bacteria Grow aerobically-Seventh Edition: Approved Standard M7-A7, CLSI, Wayne, Pa., USA, 2008) and were read by visual inspection. Two fold serial dilutions of test compound in 100 μL of the appropriate broth media were first prepared in 96-well round bottom microtiter plates (Nalgene Nunc International, Rochester, N.Y., USA). An equivalent volume (100 μL) of bacterial broth inocula containing approximately 10^5 bacterial cfu/mL was added to each well to give final concentrations of test compound starting at 200 μM. The plates were then incubated aerobically at 37° C. All strains were incubated overnight. After incubations, in all cases the MIC was recorded as the lowest concentration of drug that prevented bacterial growth. The bacterial strains for which MIC was determined as described in Table 4.

[3] = test system: Staphylococcus aureus, USA 300; test: Minimal inhibitory concentration assay; details: USA300, read-out: Minimal Inhibitory Concentrations S. aureus USA 300
Experimental: as §1, §2

[4] = test system: Staphylococcus aureus, ATCC 29213; test: Minimal inhibitory concentration assay (microbroth dilution); details: ATCC29213, read-out: Minimal Inhibitory Concentrations S. aureus ATCC 29213
Experimental: as §1, §2

[5] = test system: Staphylococcus aureus, NRS70; test: as above
Experimental: as §1, §2

[6] = test system: Bacillus subtilis, ATCC 23857; test: as above; details: Bacillus subtilis, ATCC23857; read-out: Minimal Inhibitory Concentrations B. subtilis ATCC 23857
Experimental: as §1, §2

[7] = test system: Enterococcus faecalis, ATCC 33186; test: as above; details: Enterococcus faecalis, ATCC33186, read-out: Minimal Inhibitory Concentrations E. faecalis ATCC 33186
Experimental: as §1, §2

[8] = Staphylococcus aureus, NRS70; read-out: Minimal Inhibitory Concentrations S. aureus NRS70

Row | SMILES | MIC [1] [µM] | Minimal Inhibitory Concentrations S. aureus USA 300 ΔClpP [2] [µM] | MIC [3] [µM] | MIC [4] [µM] | MIC [5, 8] [µM] | MIC [6] [µM] | MIC [7] [µM] | MIC ([5]; Staphylococcus aureus, NRS70, read-out: Minimal Inhibitory Concentrations S. aureus NRS70) [µM]
1 | C[C@@H]1CC2C(=O)O[C@@H](C)[C@H](NC(=O)[C@H](Cc3cc(F)cc(F)c3)NC(=O)Nc3ccc(OC(F)(F)F)cc3)C(=O)N3CCCC3C(=O)N3CCCCC3C(=O)N[C@@H](C)C(=O)N2C1 (stereo partly drawn) [Compound 40, (S)-3-(3,5-difluorophenyl)-2-(3-(4-(trifluoromethoxy)phenyl)ureido)-N-((2R,6S,8aS,14aS,20S,21S,23aS)-2,6,21-trimethyl-5,8,14,19,23-pentaoxooctadecahydro-1H,5H,14H,19H-pyrido[2,1-i]dipyrrolo[2,1-c:2′,1′-L][1]oxa[4,7,10,13]tetraazacyclohexadecin-20-yl)propanamide] ({NH(4-OCF3-phenyl)-CO}-[Phe(3,5-F2)][aThr][ξP][ξPip]A[ξPro(4R-Me)]; ester 2-C) | 0.4 (≈ 0.351 µg/mL) | 25 | 0.05 (≈ 0.0439 µg/mL) | 0.05 (≈ 0.0439 µg/mL) | 0.02 (≈ 0.0176 µg/mL) | 0.02 (≈ 0.0176 µg/mL) |  | 
2 | C[C@H]1CC2C(=O)O[C@@H](C)[C@H](NC(=O)[C@H](Cc3cc(F)cc(F)c3)NC(=O)Nc3ccc(OC(F)(F)F)cc3)C(=O)N3C[C@H](O)CC3C(=O)N(C)[C@@H](C)C(=O)N[C@@H](C)C(=O)N2C1 (stereo partly drawn) [Compound 32, (S)-3-(3,5-difluorophenyl)-N-((2S,6S,9S,11aS,13R,17S,18S,20aS)-13-hydroxy-2,6,9,10,18-pentamethyl-5,8,11,16,20-pentaoxohexadecahydro-1H,5H,16H-dipyrrolo[2,1-c:2′,1′-l][1]oxa[4,7,10,13]tetraazacyclohexadecin-17-yl)-2-(3-(4-(trifluoromethoxy)phenyl)ureido)propanamide] ({NH(4-OCF3-phenyl)-CO}-[Phe(3,5-F2)][aThr][ξPro(4R-OH)][NMeA]A[ξPro(4S-Me)]; ester 2-C) | 0.2 (≈ 0.174 µg/mL) | 100 | 0.39 (≈ 0.338 µg/mL) | 0.1 (≈ 0.0868 µg/mL) | 0.1 (≈ 0.0868 µg/mL) | 0.39 (≈ 0.338 µg/mL) |  | 
3 | C[C@H]1CC2C(=O)OC[C@H](NC(=O)[C@H](Cc3ccccc3)NC(=O)Nc3ccc(OC(F)(F)F)cc3)C(=O)N3CCCC3C(=O)N3CCCCC3C(=O)N[C@@H](C)C(=O)N2C1 (stereo partly drawn) [Compound 44, (S)—N-((2S,6S,8aS,14aS,20S,23aS)-2,6-dimethyl-5,8,14,19,23-pentaoxooctadecahydro-1H,5H,14H,19H-pyrido[2,1-i]dipyrrolo[2,1-c:2′,1′-l][1]oxa[4,7,10,13]tetraazacyclohexadecin-20-yl)-3-phenyl-2-(3-(4-(trifluoromethoxy)phenyl)ureido)propanamide] | 0.2 (≈ 0.166 µg/mL) | 50 | 0.8 (≈ 0.662 µg/mL) | 0.4 (≈ 0.331 µg/mL) | 0.4 (≈ 0.331 µg/mL) | 0.1 (≈ 0.0828 µg/mL) |  | 
4 | C[C@@H]1NC(=O)[C@H](C)N(C)C(=O)C2CCCN2C(=O)[C@@H](NC(=O)[C@H](Cc2cc(F)cc(F)c2)NC(=O)Nc2ccc(OC(F)(F)F)cc2)[C@H](C)OC(=O)C2CCCN2C1=O (stereo partly drawn) [Compound 27, (2S)-3-(3,5-difluorophenyl)-N-((6S,9S,11aS,17S,18S)-6,9,10,18-tetramethyl-5,8,11,16,20-pentaoxohexadecahydro-1H,5H,16H-dipyrrolo[2,1-c:2′,1′-l][1]oxa[4,7,10,13]tetraazacyclohexadecin-17-yl)-2-(3-(4-(trifluoromethoxy)phenyl)ureido)propanamide] ({NH(4-OCF3-phenyl)-CO}-[Phe(3,5-F2)][aThr][ξP][NMeA]A[ξP]; ester 2-C) | 0.23 (≈ 0.193 µg/mL) | 100 | 0.2 (≈ 0.168 µg/mL) | 0.2 (≈ 0.168 µg/mL) | 0.2 (≈ 0.168 µg/mL) | 0.02 (≈ 0.0168 µg/mL) |  | 
5 | C[C@H]1CC2C(=O)OC[C@H](NC(=O)[C@H](Cc3cc(F)cc(F)c3)NC(=O)Nc3ccc4c(c3)OCO4)C(=O)N3CCCC3C(=O)N3CCCCC3C(=O)N[C@@H](C)C(=O)N2C1 (stereo partly drawn) [Compound 46, (S)-2-(3-(benzo[d][1,3]dioxol-5-yl)ureido)-3-(3,5-difluorophenyl)-N-((2S,6S,8aS,14aS,20S,23aS)-2,6-dimethyl-5,8,14,19,23-pentaoxooctadecahydro-1H,5H,14H,19H-pyrido[2,1-i]dipyrrolo[2,1-c:2′,1′-l][1]oxa[4,7,10,13]tetraazacyclohexadecin-20-yl)propanamide] | 0.8 (≈ 0.659 µg/mL) | 200 | 3.1 (≈ 2.55 µg/mL) | 3.1 (≈ 2.55 µg/mL) | 1.6 (≈ 1.32 µg/mL) | 0.4 (≈ 0.33 µg/mL) |  | 
6 | CCc1ccc(NC(=O)N[C@@H](Cc2cc(F)cc(F)c2)C(=O)N[C@@H]2C(=O)N3CCCC3C(=O)N(C)[C@@H](C)C(=O)N[C@@H](C)C(=O)N3C[C@@H](C)CC3C(=O)O[C@H]2C)cc1 (stereo partly drawn) [Compound 30, (S)-3-(3,5-difluorophenyl)-2-(3-(4-ethylphenyl)ureido)-N-((2S,6S,9S,11aS,17S,18S,20aS)-2,6,9,10,18-pentamethyl-5,8,11,16,20-pentaoxohexadecahydro-1H,5H,16H-dipyrrolo[2,1-c:2′,1′-L][1]oxa[4,7,10,13]tetraazacyclohexadecin-17-yl)propanamide] ({NH(4-Et-phenyl)-CO}-[Phe(3,5-F2)][aThr][ξP][NMeA]A[ξPro(4S-Me)]; ester 2-C) | 0.03 (≈ 0.0239 µg/mL) | 50 | 0.1 (≈ 0.0796 µg/mL) | 0.1 (≈ 0.0796 µg/mL) | 0.2 (≈ 0.159 µg/mL) | 0.001 (≈ 0.000796 µg/mL) |  | 
7 | CCc1ccc(NC(=O)N[C@@H](Cc2cc(F)cc(F)c2)C(=O)N[C@@H]2C(=O)N3CCCC3C(=O)N(C)[C@@H](C)C(=O)N[C@@H](C)C(=O)N3CCCC3C(=O)O[C@H]2C)cc1 (stereo partly drawn) [Compound 29, (2S)-3-(3,5-difluorophenyl)-2-(3-(4-ethylphenyl)ureido)-N-((6S,9S,11aS,17S,18S)-6,9,10,18-tetramethyl-5,8,11,16,20-pentaoxohexadecahydro-1H,5H,16H-dipyrrolo[2,1-c:2′,1′-l][1]oxa[4,7,10,13]tetraazacyclohexadecin-17-yl)propanamide] ({NH(4-Et-phenyl)-CO}-[Phe(3,5-F2)][aThr][ξP][NMeA]A[ξP]; ester 2-C) | 0.13 (≈ 0.102 µg/mL) | 100 | 0.2 (≈ 0.156 µg/mL) | 0.2 (≈ 0.156 µg/mL) | 0.2 (≈ 0.156 µg/mL) | 0.01 (≈ 0.00782 µg/mL) |  | 
8 | C[C@@H]1C[C@H]2C(=O)O[C@@H](C)[C@H](NC(=O)[C@H](Cc3cc(F)cc(F)c3)NC(=O)Nc3ccc4nc[nH]c4c3)C(=O)N3CCC[C@H]3C(=O)N3CCCC[C@H]3C(=O)N[C@@H](C)C(=O)N2C1 [Compound 303, (S)-2-(3-(1H-benzo[d]imidazol-6-yl)ureido)-3-(3,5-difluorophenyl)-N-((2R,6S,8aS,14aS,20S,21S,23aS)-2,6,21-trimethyl-5,8,14,19,23-pentaoxooctadecahydro-1H,5H,14H,19H-pyrido[2,1-i]dipyrrolo[2,1-c:2′,1′-l][1]oxa[4,7,10,13]tetraazacyclo-hexadecin-20-yl)propanamide] ({X12-CO}-[Phe(3,5-F2)][aThr]P[Pip]A[Pro(4R-Me)]; ester 2-C) |  | >20 | 15.1 (≈ 12.6 µg/mL) | 20 (≈ 16.7 µg/mL) |  |  | 2.5 (≈ 2.08 µg/mL) | 10.1 (≈ 8.42 µg/mL)
